This note sets out measurements from patent publication US8084398B2, “Benzoylpyrazoles and herbicide” (Bayer Cropscience AG, priority 2006, dated 2011).

In series [1] the test system is Setaria viridis. The series can be described thus: Herbicidal efficacy against field weeds, after-emergence stalk and leaf spray treatment (Test Example 2). Type of series: in vivo. Particulars: 2- to 3-leaf stage, 500 g ai/ha, 2 weeks after treatment, 100% = complete death. The method, then: (§1) A suitable formulation of an active compound is obtained as an emulsifiable concentrate by mixing 1 part by weight of the active compound with the stated amounts of the carrier and emulsifier. A prescribed amount of the formulation is diluted with water.
(§2) In a green house, the seeds of field weeds (Amaranthus lividus and Setaria viridis) were inoculated by one species per pot on the surface layer in 16 cm^2 pots filled with field soil (sand loam) and covered with soil. Immediately after the inoculation, the prescribed and diluted solutions of the formulations of respective active compounds prepared according to the above preparation method, were sprayed to the soil. After 2 weeks from the treatment, the herbicidal efficacy of respective active compounds was examined. The evaluation of the herbicidal efficacy was carried out by rating complete death as 100% and as 0% in case of no herbicidal efficacy. In case of showing herbicidal efficacy of 80% or more, such active compounds are evaluated to be practical as herbicides. As typical examples, the study results with Compound Nos. 19 and 96 and those with Comparative compound C-1 are shown in Table 2 below.
Test for herbicidal efficacy against field weeds (After-emerge stalk and leave spray treatment) […]

Another series concerns Amaranthus lividus. Put plainly: Herbicidal efficacy against field weeds, pre-emergence soil spray treatment (Test Example 1). Format: in vivo. Particulars: 500 g ai/ha, 2 weeks after treatment, 100% = complete death, 0% = no efficacy. As for the experimental part:
(§3) Test for herbicidal efficacy against field weeds (Pre-emergence soil spray treatment) Preparation of formulation of the active compound
(§4) Carrier: DMF 5 parts by weight
(§5) Emulsifier: Benzyloxy polyglycol ether 1 part by weight
as §1, §2

Series [2] concerns Setaria viridis. The description is as above. Type of series: in vivo. The settings on record: 500 g ai/ha, 2 weeks after treatment, 100% = complete death, 0% = no efficacy. As for the experimental part: as §3, §4, §5, §1, §2

SMILES strings stand for the structures.

Turning to `CS(=O)(=O)c1ccc(C(=O)C2C(=O)CCCC2=O)c(Cl)c1` [C-1], the “herbicidal efficacy, Setaria viridis” value is 40% in the series with Setaria viridis [1] and 30% with Setaria viridis [2]. In addition, the “herbicidal efficacy, Amaranthus lividus” value in the series with Amaranthus lividus amounted to 70%.
Broadly, the melting point is the temperature of the solid-liquid transition. On to `Cc1nn(C)c(O)c1C(=O)c1ccc(Cl)c(OCCn2cnnn2)c1Cl`, for which the melting point was 63 to 68 °C.
